Experimental data taken from ChEMBL document CHEMBL4765279, “Discovery of a novel series of imidazo[1',2':1,6]pyrido[2,3-d]pyrimidin derivatives as potent cyclin-dependent kinase 4/6 inhibitors” (Eur J Med Chem, 2020).

How the values were obtained:
[1] = target: CDK4/Cyclin D3 (Homo sapiens, UniProt P11802); assay: Inhibition of recombinant human full-length N-terminal GST-fused CDK4 (1 to 303 residues)/GST-tagged CyclinD3 (1 to 292 residues) expressed in baculovirus expression system using ULight-elF4E-binding protein 1 peptide as substrate measured after 30 mins by LANCE assay
Sequence of CDK4/Cyclin D3 (P11802 whole entry, the tested form may be a part): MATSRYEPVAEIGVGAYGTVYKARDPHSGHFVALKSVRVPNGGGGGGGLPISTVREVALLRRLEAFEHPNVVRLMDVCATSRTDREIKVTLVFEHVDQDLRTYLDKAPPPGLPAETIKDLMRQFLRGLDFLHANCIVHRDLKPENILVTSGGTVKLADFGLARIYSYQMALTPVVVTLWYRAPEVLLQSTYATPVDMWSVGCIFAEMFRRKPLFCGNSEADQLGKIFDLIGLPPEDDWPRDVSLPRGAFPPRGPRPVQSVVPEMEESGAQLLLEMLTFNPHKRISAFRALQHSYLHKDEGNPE
Sequence of CDK4/Cyclin D3 (P30281 whole entry, further chain, the tested form may be a part): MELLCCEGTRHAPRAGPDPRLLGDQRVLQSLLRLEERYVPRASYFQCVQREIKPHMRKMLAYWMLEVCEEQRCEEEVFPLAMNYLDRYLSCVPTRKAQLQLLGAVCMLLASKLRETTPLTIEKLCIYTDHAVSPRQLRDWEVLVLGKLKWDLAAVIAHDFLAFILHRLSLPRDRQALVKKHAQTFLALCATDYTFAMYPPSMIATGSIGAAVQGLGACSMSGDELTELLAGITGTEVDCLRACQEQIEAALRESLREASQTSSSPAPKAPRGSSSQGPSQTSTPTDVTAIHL

[2] = target: CDK6/Cyclin D3 (Homo sapiens, UniProt Q00534); assay: Inhibition of human full-length N-terminal GST tagged CDK6 (1 to 326 residues)/GST-tagged cyclinD3 (1 to 292 residues) expressed in baculovirus expression system using ULight-elF4E-binding protein 1 peptide as substrate measured after 30 mins by LANCE assay
Sequence of CDK6/Cyclin D3 (Q00534 whole entry, looked up, the tested form may be a part): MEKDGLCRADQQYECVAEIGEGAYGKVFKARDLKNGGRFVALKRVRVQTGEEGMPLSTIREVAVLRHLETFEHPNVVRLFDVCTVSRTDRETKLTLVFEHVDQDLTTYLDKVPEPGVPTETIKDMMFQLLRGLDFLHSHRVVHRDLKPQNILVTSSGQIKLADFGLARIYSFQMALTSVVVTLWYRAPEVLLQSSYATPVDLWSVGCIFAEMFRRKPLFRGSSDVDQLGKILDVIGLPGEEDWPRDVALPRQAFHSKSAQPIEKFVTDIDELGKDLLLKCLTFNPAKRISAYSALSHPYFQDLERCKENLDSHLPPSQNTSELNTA

[3] = system: COLO 205; assay: Antiproliferative activity against human COLO 205 cells assessed as cell growth inhibition measured after 4 to 6 days by celltiter-glo luminescent cell viability assay; format: functional, cell-based
[4] = system: U-87 MG; assay: Antiproliferative activity against human U-87 MG cells assessed as cell growth inhibition measured after 4 to 6 days by celltiter-glo luminescent cell viability assay; format: functional, cell-based, U-87MG ATCC
[5] = system: COLO 205; assay: Cell cycle arrest in human COLO 205 cells assessed as accumulation at G0/G1 phase at 200 nM measured after 24 hrs by propidium iodide staining based flow cytometry relative to control; format: functional
[6] = system: MDA-MB-468; assay: Antiproliferative activity against human MDA-MB-468 cells assessed as cell growth inhibition measured after 4 to 6 days by celltiter-glo luminescent cell viability assay; format: functional, cell-based

Compound | IC50 [1] [nM] | IC50 [2] [nM] | IC50 [3] [nM] | IC50 [4] [nM] | Activity [5] [%] | IC50 [6] [nM]
CCOC(=O)c1cn2c(n1)c(C(C)=O)c(C)c1cnc(Nc3ccc(N4CCNCC4)cc3)nc12 | 22.3 | 86.6 | 2840 | > 10000 | – | –
CC(=O)c1c(C)c2cnc(Nc3ccc(N4CCNCC4)cc3)nc2n2cc(C)nc12 | 3.6 | 10.2 | 583 | 1260 | – | –
Cc1cn2c(n1)c(C#N)c(C)c1cnc(N)nc12 | 592 | 3090 | – | – | – | –
Cc1cn2c(n1)c(C#N)c(C)c1cnc(Nc3ccc(Br)cc3)nc12 | > 3330 | 924 | – | – | – | –
CC(=O)c1c(C)c2cnc(Nc3ccc(N4CCNCC4)cc3)nc2n2cc(C(=O)N3CCCC3)nc12 | 59 | 150 | – | > 10000 | – | –
CC(=O)c1c(C)c2cnc(Nc3ccc(N4CCNCC4)cn3)nc2n2cc(C(C)C)nc12 | 3.7 | 3.7 | 290 | 291 | – | –
Cc1cn2c(n1)c(C#N)c(C)c1cnc(Nc3ccc(N4CCOCC4)cc3)nc12 | 123 | 110 | – | – | – | –
CC(=O)c1c(C)c2cnc(Nc3ccc4c(n3)CCN(CCN(C)C)C4)nc2n2cc(C(C)C)nc12 | 4.2 | 5.1 | 324 | 249 | – | –
CC(=O)c1c(C)c2cnc(Nc3ccc(N4CCC5(CCNC5)C4)cn3)nc2n2cc(C(C)C)nc12 (stereo unspecified) | 4 | 3.8 | 1280 | 719 | – | –
CC(=O)c1c(C)c2cnc(Nc3ccc(C(=O)N4CCNCC4)cn3)nc2n2cc(C(C)C)nc12 | 5.3 | 5.6 | 932 | 380 | – | –
CC(=O)c1c(C)c2cnc(Nc3ccc(N4CCNCC4)cc3)nc2n2cc(-c3ccccc3)nc12 | 13.5 | 32.8 | 474 | 412 | – | –
CC(=O)c1c(C)c2cnc(Nc3ccc(N4CCNCC4)cn3)nc2n(C2CCCC2)c1=O [PALBOCICLIB] | – | – | 301 | 345 | 95.7 | 5420
